Reference: US12459899B2, “Isoquinolinone derivatives, method for preparing the same, and pharmaceutical composition for preventing or treating poly(ADP-ribose) polymerase-1-related diseases, comprising the same as active ingredient” (DIGMBIO. INC., priority 2019, dated 2025)
pIC50: −log10 of the molar value.

Molecular target: PARP-1 (poly[ADP-ribose] polymerase 1) enzyme (Homo sapiens (Human), UniProt P09874)
Assay: PARP-1 (poly[ADP-ribose] polymerase 1) enzyme inhibitory ability, Trevigen assay kit
Assay type: biochemical
Settings: for inhibition at 0.001 µM: 1 nM compound, read-out: PAR P-1 Inhibitory ability at 1 nM; for pIC50: PARP-1 enzyme activity
Description: In order to evaluate the PARP-1 (poly[ADP-ribose] polymerase 1) enzyme inhibitory ability of the compounds according to the present invention, an experiment was conducted as follows.
Specifically, in order to evaluate the PARP-1 (poly[ADP-ribose] polymerase 1) enzyme inhibitory ability of the compounds of Examples 1 to 276 according to the present invention, the PARP-1 (poly[ADP-ribose] polymerase 1) activity was investigated in the following manner using an assay kit purchased from Trevigen, Inc. (Catalog number: 4677-096-K). 50 μL of 1×PARP buffer (provided by Trevigen's kit) was dispensed into a 96-well plate coated with histones per each well, and then rehydrated for 30 minutes. After removing the 1×PARP buffer present in the well, PARP-1 (poly[ADP-ribose] polymerase 1) enzyme (0.5 unit/well) and 1 μM concentration or various concentrations of the compounds of Example 1 to 276 were added at room temperature and reacted for 10 minutes. Thereafter, each well was treated with 25 μL of 1×PARP cocktail (biotinylated NAD, activated DNA, provided by Trevigen's kit), and then reacted at room temperature for 1 hour. After the reaction was completed, each well was washed twice with PBS (7.5 mM Na2HPO4, 2.5 mM NaH2PO4, 145 mM NaCl) containing 0.1% triton X-100, and washed twice with PBS. Then, 50 μL of strep-HRP (streptavidin-linked peroxidase) was added and reacted at room temperature for 1 hour, and then washed twice with PBS containing 0.1% triton X-100, and washed twice with PBS. After removing all PBS, 50 μL of TACS-sapphire, a substrate, was added, and reacted at room temperature for 15 minutes while blocking the light. After the reaction was terminated by treatment with 50 μL of 5% phosphoric acid to each well, the absorbance was measured at 450 nm using a microplate reader Victor3 from PerkinElmer, Inc. to quantify the value.

Chain of PARP-1 (poly[ADP-ribose] polymerase 1) enzyme (P09874 whole entry): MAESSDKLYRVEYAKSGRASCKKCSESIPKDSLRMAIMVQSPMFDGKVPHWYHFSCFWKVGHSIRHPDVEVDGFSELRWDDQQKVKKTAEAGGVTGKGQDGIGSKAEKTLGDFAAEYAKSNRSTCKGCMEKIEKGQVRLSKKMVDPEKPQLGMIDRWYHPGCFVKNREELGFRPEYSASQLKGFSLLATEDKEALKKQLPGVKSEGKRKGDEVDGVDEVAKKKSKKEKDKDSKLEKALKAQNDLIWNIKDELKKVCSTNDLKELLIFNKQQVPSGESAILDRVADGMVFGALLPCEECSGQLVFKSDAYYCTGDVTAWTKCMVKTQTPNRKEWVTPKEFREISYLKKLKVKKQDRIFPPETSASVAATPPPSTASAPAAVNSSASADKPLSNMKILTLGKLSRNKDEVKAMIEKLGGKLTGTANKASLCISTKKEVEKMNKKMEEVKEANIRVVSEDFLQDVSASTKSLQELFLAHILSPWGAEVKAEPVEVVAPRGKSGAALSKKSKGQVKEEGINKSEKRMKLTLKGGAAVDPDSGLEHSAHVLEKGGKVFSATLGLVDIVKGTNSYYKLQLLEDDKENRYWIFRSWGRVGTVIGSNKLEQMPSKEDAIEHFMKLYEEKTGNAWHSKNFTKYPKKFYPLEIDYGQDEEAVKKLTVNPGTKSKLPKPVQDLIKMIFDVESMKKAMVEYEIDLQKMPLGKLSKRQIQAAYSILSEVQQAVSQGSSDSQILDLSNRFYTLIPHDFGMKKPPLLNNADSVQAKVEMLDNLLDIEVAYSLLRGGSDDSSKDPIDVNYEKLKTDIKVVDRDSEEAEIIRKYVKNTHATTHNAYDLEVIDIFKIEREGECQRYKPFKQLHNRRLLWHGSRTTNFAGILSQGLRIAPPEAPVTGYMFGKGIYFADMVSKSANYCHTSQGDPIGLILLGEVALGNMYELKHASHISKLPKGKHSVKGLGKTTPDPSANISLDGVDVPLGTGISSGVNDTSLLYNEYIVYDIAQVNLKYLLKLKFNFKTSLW

| SMILES | inhibition at 0.001 µM [%] | pIC50 |
| --- | --- | --- |
| O=C(O)c1cccc(N2CCN(CCCc3cc4ccc(F)cc4c(=O)[nH]3)CC2)c1 [Example 19, 3-(4-(3-(7-fluoro-1-oxo-1,2-dihydroisoquinolin-3-yl)propyl)piperazin-1-yl)benzoic acid] | < 50 | – |
| CC(=O)Nc1cccc(N2CCN(CCCc3cc4ccc(F)cc4c(=O)[nH]3)CC2)c1 [Example 20, N-(3-(4-(3-(7-fluoro-1-oxo-1,2-dihydroisoquinolin-3-yl)propyl)piperazin-1-yl)phenyl)acetamide] | < 50 | – |
| Cc1ccc(F)c2c(=O)[nH]c(CCCN3CCN(c4ccc(C#N)nc4)CC3)cc12 [Example 21, 5-(4-(3-(8-fluoro-5-methyl-1-oxo-1,2-dihydroisoquinolin-3-yl)propyl)piperazin-1-yl)picolinonitrile] | < 50 | 8.96 |
| Cc1ccc(F)c2c(=O)[nH]c(CCCN3CCN(c4ccc(C#N)cn4)CC3)cc12 [Example 22, 6-(4-(3-(8-fluoro-5-methyl-1-oxo-1,2-dihydroisoquinolin-3-yl)propyl)piperazin-1-yl)nicotinonitrile] | < 50 | 8.92 |
| Cc1ccc(F)c2c(=O)[nH]c(CCCN3CCN(c4ccc(C#N)cc4)CC3)cc12 [Example 23, 4-(4-(3-(8-fluoro-5-methyl-1-oxo-1,2-dihydroisoquinolin-3-yl)propyl)piperazin-1-yl)benzonitrile] | < 50 | 9.12 |
| Cc1ccc(F)c2c(=O)[nH]c(CCCN3CCN(c4ccccn4)CC3)cc12 [Example 24, 8-fluoro-5-methyl-3-(3-(4-(pyridin-2-yl)piperazin-1-yl)propyl)isoquinolin-1(2H)-one] | < 50 | – |
| Cc1ccc(F)c2c(=O)[nH]c(CCCN3CCN(c4ncccn4)CC3)cc12 [Example 25, 8-fluoro-5-methyl-3-(3-(4-(pyrimidin-2-yl)piperazin-1-yl)propyl)isoquinolin-1(2H)-one] | < 50 | – |
| Cc1ccc(F)c2c(=O)[nH]c(CCCN3CCN(c4ccc(C#N)cc4F)CC3)cc12 [Example 26, 3-fluoro-4-(4-(3-(8-fluoro-5-methyl-1-oxo-1,2-dihydroisoquinolin-3-yl)propyl)piperazin-1-yl)benzonitrile] | 50 to 80 | – |
| Cc1ccc(F)c2c(=O)[nH]c(CCCN3CCN(c4ccc(C(F)(F)F)cc4)CC3)cc12 [Example 27, 8-fluoro-5-methyl-3-(3-(4-(4-(trifluoromethyl)phenyl)piperazin-1-yl)propyl)isoquinolin-1(2H)-one] | < 50 | – |
| Cc1ccc(F)c2c(=O)[nH]c(CCCN3CCN(c4ccccc4C#N)CC3)cc12 [Example 28, 2-(4-(3-(8-fluoro-5-methyl-1-oxo-1,2-dihydroisoquinolin-3-yl)propyl)piperazin-1-yl)benzonitrile] | < 50 | – |
| Cc1ccc(F)c2c(=O)[nH]c(CCCN3CCN(c4nccs4)CC3)cc12 [Example 29, 8-fluoro-5-methyl-3-(3-(4-(thiazole-2-yl)piperazin-1-yl)propyl)isoquinolin-1(2H)-one] | < 50 | – |
| Cc1cnc(N2CCN(CCCc3cc4c(C)ccc(F)c4c(=O)[nH]3)CC2)s1 [Example 30, 8-fluoro-5-methyl-3-(3-(4-(5-methylthiazole-2-yl)piperazin-1-yl)propyl)isoquinolin-1(2H)-one] | < 50 | – |
| Cc1ccc(F)c2c(=O)[nH]c(CCCN3CC[C@H](c4ccc(F)cc4)C3)cc12 [Example 31, (R)-8-fluoro-3-(3-(3-(4-fluorophenyl)pyrrolidin-1-yl)propyl)-5-methylisoquinolin-1(2H)-one] | < 50 | – |
| Cc1ccc(F)c2c(=O)[nH]c(CCCN3CC[C@@H](c4ccc(F)cc4)C3)cc12 [Example 32, (S)-8-fluoro-3-(3-(3-(4-fluorophenyl)pyrrolidin-1-yl)propyl)-5-methylisoquinolin-1(2H)-one] | < 50 | – |
